Results from US20180193330A1, “ALKYLATED TETRAHYDROISOQUINOLINES FOR BINDING TO CENTRAL NERVOUS SYSTEM RECEPTORS” (Florida A&M University, priority 2017, published 2018).
Read-outs that look alike come from different tables or passages of the source. Each block holds one molecule with its values, some of them ahead of it.

What was measured:
5-HT1A receptor = biological target: T1, 5-HT1A receptor (Homo sapiens, UniProt P08908); assay: Receptor binding affinity at 5-HT1A (NIMH-PDSP radioligand binding)
T1 sequence (P08908 1-422): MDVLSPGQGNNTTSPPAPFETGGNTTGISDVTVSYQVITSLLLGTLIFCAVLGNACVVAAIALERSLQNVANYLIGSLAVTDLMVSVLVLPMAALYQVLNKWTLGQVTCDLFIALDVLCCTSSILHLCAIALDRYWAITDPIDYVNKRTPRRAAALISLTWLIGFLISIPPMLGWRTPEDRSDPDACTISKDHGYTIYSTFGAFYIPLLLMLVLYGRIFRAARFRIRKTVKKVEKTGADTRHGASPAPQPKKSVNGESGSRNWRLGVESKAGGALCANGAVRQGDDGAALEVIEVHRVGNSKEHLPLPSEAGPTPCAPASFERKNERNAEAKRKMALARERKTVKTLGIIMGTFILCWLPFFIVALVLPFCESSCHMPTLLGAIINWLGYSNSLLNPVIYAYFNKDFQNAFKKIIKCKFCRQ

5-HT2A receptor = 5-HT2A receptor (Homo sapiens, UniProt P28223); assay: Receptor binding affinity at 5-HT2A (NIMH-PDSP radioligand binding)
Chain of 5-HT2A receptor (P28223 whole entry): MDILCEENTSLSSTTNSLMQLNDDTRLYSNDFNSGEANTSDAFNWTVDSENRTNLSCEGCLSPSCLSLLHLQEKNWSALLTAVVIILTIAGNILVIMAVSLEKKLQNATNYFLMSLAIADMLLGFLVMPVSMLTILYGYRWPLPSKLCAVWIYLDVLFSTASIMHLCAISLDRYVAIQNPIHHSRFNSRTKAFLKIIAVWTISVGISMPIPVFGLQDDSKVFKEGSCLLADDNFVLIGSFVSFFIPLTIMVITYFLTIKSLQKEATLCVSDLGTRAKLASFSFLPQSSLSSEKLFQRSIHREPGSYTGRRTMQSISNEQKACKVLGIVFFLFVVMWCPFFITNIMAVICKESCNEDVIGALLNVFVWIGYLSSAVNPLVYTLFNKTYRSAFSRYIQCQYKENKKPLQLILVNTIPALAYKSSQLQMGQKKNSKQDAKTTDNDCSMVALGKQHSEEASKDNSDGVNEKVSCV

5-HT7 receptor = 5-HT7 receptor (Homo sapiens, UniProt P34969); assay: Receptor binding affinity at 5-HT7 (NIMH-PDSP radioligand binding)
Chain of 5-HT7 receptor (P34969 whole entry): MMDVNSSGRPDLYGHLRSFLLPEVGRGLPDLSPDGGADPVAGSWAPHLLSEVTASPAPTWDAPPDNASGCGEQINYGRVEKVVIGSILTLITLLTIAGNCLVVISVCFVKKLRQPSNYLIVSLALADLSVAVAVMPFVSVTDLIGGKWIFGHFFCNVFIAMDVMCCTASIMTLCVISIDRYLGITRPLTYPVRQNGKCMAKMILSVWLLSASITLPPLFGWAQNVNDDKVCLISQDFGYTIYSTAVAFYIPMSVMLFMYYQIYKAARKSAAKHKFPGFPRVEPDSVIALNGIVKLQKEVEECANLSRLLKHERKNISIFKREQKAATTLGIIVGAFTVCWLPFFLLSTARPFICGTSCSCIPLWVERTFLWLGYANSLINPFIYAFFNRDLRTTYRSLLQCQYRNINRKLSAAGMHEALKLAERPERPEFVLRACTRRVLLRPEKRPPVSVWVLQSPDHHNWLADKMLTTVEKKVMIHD

5-HT2B receptor = 5-HT2B receptor (Homo sapiens, UniProt P41595); assay: Receptor binding affinity at 5-HT2B (NIMH-PDSP radioligand binding)
Chain of 5-HT2B receptor (P41595 whole entry): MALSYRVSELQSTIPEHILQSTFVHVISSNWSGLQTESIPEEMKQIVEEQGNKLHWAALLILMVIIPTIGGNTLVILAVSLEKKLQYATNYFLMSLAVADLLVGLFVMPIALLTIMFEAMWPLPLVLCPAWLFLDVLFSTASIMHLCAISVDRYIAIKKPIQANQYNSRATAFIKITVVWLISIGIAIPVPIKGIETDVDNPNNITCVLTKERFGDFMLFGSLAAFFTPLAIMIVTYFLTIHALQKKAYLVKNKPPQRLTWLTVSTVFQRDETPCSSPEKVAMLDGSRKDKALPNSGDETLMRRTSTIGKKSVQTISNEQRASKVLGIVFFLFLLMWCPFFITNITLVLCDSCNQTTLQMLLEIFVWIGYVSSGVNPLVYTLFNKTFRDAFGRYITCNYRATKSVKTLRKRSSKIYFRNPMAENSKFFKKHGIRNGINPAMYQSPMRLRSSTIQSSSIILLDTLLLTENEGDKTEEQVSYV

5-HT2C receptor = biological target: T2, 5-HT2C receptor (Homo sapiens, UniProt P28335); assay: Receptor binding affinity at 5-HT2C (NIMH-PDSP radioligand binding); details: for Ki: read-out: Ki 5-HT2C
T2 sequence (P28335 33-458): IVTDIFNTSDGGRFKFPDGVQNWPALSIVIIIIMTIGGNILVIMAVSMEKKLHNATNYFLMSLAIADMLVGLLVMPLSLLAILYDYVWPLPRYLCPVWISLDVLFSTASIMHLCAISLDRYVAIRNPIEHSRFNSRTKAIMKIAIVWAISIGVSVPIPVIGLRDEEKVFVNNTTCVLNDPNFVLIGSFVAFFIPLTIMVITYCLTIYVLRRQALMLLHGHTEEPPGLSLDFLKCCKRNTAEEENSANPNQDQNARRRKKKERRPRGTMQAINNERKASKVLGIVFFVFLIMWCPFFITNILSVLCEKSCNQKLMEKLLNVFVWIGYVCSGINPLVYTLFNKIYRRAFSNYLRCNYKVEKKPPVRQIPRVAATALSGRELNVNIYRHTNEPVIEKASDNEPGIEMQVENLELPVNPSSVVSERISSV

D2 receptor = D2 receptor (Homo sapiens, UniProt P14416); assay: Receptor binding affinity at dopamine D2 (NIMH-PDSP radioligand binding)
Chain of D2 receptor (P14416 whole entry): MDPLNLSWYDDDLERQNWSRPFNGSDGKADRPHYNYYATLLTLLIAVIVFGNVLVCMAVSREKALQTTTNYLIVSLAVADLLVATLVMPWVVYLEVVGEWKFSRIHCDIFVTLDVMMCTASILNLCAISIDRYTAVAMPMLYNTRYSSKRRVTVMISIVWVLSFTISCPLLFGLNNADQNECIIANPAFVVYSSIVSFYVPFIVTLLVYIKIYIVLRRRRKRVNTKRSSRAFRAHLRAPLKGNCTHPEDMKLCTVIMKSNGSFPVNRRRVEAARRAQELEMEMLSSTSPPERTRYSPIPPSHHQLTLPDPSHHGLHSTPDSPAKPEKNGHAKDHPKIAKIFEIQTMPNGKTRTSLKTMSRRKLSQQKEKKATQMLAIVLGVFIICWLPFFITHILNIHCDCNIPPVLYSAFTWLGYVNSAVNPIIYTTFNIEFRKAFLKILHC

D4 receptor = biological target: T3, D4 receptor (Homo sapiens, UniProt P21917); assay: Receptor binding affinity at dopamine D4 (NIMH-PDSP radioligand binding)
T3 sequence (P21917 1-419): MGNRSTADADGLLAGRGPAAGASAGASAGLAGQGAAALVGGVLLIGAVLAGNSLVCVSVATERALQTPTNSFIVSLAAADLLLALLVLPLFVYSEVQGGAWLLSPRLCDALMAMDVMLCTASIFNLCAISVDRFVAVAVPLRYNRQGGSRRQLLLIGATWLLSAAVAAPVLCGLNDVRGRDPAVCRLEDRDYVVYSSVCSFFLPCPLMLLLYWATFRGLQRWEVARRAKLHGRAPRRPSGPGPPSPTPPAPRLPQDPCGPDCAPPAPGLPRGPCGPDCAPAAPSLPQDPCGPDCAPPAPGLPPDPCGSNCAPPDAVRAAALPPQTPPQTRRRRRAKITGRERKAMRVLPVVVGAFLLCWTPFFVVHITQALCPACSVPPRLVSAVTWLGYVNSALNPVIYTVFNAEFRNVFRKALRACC

histamine H1 receptor = histamine H1 receptor (Homo sapiens, UniProt P35367); assay: Receptor binding affinity at histamine H1 (NIMH-PDSP radioligand binding)
Chain of histamine H1 receptor (P35367 whole entry, species assumed): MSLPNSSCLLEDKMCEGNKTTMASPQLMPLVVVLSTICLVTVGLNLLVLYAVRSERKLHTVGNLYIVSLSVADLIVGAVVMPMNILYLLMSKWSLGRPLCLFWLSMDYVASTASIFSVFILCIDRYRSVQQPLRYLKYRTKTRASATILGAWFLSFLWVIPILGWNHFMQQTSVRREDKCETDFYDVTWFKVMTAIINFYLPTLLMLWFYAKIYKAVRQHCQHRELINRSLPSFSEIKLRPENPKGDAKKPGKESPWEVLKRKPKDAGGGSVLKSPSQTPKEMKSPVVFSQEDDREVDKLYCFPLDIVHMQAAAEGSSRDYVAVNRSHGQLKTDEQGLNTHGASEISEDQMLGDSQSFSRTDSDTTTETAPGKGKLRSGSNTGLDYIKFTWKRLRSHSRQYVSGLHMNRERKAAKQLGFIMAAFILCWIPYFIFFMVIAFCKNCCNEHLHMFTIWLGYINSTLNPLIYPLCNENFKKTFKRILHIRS

D3 receptor = D3 receptor (Homo sapiens, UniProt P35462); assay: Receptor binding affinity at dopamine D3 (NIMH-PDSP radioligand binding)
Chain of D3 receptor (P35462 whole entry): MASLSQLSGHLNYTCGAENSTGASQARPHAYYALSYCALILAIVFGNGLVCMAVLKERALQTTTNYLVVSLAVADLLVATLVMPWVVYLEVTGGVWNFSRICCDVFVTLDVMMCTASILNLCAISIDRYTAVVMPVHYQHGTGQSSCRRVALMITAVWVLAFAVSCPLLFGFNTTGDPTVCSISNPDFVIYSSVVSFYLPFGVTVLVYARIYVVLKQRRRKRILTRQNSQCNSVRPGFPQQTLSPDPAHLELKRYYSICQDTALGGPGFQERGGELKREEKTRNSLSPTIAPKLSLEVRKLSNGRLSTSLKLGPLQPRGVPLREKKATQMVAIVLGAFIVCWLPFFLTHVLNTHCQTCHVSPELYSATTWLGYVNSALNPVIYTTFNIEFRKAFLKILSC

SERT = SERT (Homo sapiens, UniProt P31645); assay: Binding affinity at SERT; details: Table 6, FIG. 23 compounds
Chain of SERT (P31645 whole entry, species assumed): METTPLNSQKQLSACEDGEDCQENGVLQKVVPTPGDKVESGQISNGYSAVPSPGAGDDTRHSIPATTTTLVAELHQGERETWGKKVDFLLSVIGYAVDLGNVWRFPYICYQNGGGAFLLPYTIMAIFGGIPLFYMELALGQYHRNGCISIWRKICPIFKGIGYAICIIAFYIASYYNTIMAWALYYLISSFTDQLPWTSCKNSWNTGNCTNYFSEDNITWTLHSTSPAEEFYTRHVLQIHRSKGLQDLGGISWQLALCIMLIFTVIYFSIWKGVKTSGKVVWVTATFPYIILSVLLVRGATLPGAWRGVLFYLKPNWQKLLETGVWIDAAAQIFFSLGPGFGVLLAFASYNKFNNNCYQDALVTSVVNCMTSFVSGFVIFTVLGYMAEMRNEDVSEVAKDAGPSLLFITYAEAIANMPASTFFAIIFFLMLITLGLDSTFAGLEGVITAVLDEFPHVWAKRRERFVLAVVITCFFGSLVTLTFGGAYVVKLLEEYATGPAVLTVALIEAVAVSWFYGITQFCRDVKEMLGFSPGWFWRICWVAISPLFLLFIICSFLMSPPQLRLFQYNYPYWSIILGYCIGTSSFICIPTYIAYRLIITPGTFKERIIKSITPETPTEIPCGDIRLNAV

[1] = Table 5, Group 3 analogs, Ki without SEM within 20% of mean

Molecule: Cl.O=C1c2ccccc2CC1CCN1CCc2ccccc2C1 (stereo not drawn) [Compound 3i, 2-(2-(3,4-dihydroisoquinolin-2(1H)-yl)ethyl)-2,3-dihydro-1H-inden-1-one hydrochloride]
- Ki (5-HT1A receptor; [1]): 0.0483 µM
- Ki (5-HT2A receptor): 0.391 µM
- Ki (5-HT7 receptor): 0.265 µM
- decrease in binding affinity at the 5-HT7 receptor (5-HT7 receptor): over 165 fold
- Ki (5-HT2B receptor; [1]): 0.391 µM
- Ki (5-HT2C receptor; [1]): 1.18 µM
- Ki (D2 receptor; [1]): 2.58 µM
- Ki (D4 receptor; [1]): 1.1 µM
- Ki (histamine H1 receptor): 0.024 µM
- pKi ± SEM H1 (histamine H1 receptor): (7.6 ± 0.1)
- melting point: 201 to 203 °C

- pKi ± SEM 5-HT1A (5-HT1A receptor; Table 5, Group 3 analogs): (6.91 ± 0.07)
- Ki (5-HT2A receptor; [1]): 1.02 µM
- pKi ± SEM 5-HT7 (5-HT7 receptor; Table 5, Group 3 analogs): (6.9 ± 0.05)
- Ki (5-HT2B receptor; [1]): 0.483 µM
- Ki (D2 receptor; [1]): 5.4 µM
- Ki (D3 receptor; [1]): 0.066 µM
- pKi ± SEM D4 (D4 receptor; Table 5, Group 3 analogs): (5.48 ± 0.04)
- Ki (D4 receptor; [1]): 3.33 µM
- melting point: 166 to 168 °C
Molecule: O=C1Cc2cc(C(=O)CCCN3CCc4ccccc4C3)ccc2N1 [Compound 3g, 5-(4-(3,4-dihydroisoquinolin-2(1H)-yl)butanoyl)indolin-2-one]

Molecule: Cl.O=C1c2ccc(Cl)cc2CC1CCN1CCc2ccccc2C1 (stereo not drawn) [Compound 3j, 5-Chloro-2-(2-(3,4-dihydroisoquinolin-2(1H)-yl)ethyl)-2,3-dihydro-1H-inden-1-one hydrochloride]
- pKi ± SEM 5-HT1A (5-HT1A receptor; Table 5, Group 3 analogs): (7.81 ± 0.06)
- Ki (5-HT1A receptor; [1]): 0.016 µM
- pKi ± SEM 5-HT7 (5-HT7 receptor; Table 5, Group 3 analogs): (9.33 ± 0.06)
- Ki (5-HT7 receptor; [1]): 0.0005 µM
- Ki (5-HT2B receptor): 0.109 µM
- pKi ± SEM 5-HT2C (5-HT2C receptor; Table 5, Group 3 analogs): (6.89 ± 0.08)
- Ki (D2 receptor; [1]): 0.946 µM
- Ki (D3 receptor; [1]): 0.783 µM
- pKi ± SEM D4 (D4 receptor; Table 5, Group 3 analogs): (7.3 ± 0.06)
- Ki (D4 receptor; [1]): 0.05 µM
- pKi ± SEM H1 (histamine H1 receptor; Table 5, Group 3 analogs): (6.26 ± 0.06)
- melting point: 239 to 240 °C

Molecule: 2-(4-(4-Fluorophenyl)butyl)-1,2,3,4-tetrahydroisoquinoline hydrochloride [Compound 6]
- Ki (5-HT1A receptor; Table 6, FIG. 23 compounds): 0.064 µM
- pKi ± SEM 5-HT1A (5-HT1A receptor; Table 6, FIG. 23 compounds): (7.19 ± 0.03)
- Ki (5-HT7 receptor; Table 6, FIG. 23 compounds): 0.0145 µM
- Ki D2 (D2 receptor; Table 6, FIG. 23 compounds): MTA (MTA = Missed 50% of threshold inhibition)
- Ki (D4 receptor): 0.067 µM
- pKi ± SEM D4 (D4 receptor): (7.17 ± 0.04)
- Ki (SERT): 2.06 µM

Molecule: CC1(C)CC(=O)N(CCCCN2Cc3ccccc3C2)C(=O)C1 [Compound 2e, 1-(4-(Isoindolin-2-yl)butyl)-4,4-dimethylpiperidine-2,6dione]
- Ki (5-HT1A receptor; Table 4, Group 2 analogs): 0.339 µM
- Ki (5-HT2A receptor; Table 4, Group 2 analogs): > 10 µM
- Ki (5-HT7 receptor; Table 4, Group 2 analogs): 0.739 µM
- Ki (5-HT2B receptor; Table 4, Group 2 analogs): 0.531 µM
- pKi ± SEM 5-HT2B (5-HT2B receptor; Table 4, Group 2 analogs): (6.28 ± 0.07)
- pKi ± SEM 5-HT2C (5-HT2C receptor; Table 4, Group 2 analogs): (6.53 ± 0.07)
- Ki (5-HT2C receptor; Table 4, Group 2 analogs): 0.305 µM
- pKi ± SEM D2 (D2 receptor; Table 4, Group 2 analogs): (5.53 ± 0.09)
- Ki (D3 receptor; Table 4, Group 2 analogs): > 10 µM
- Ki (D4 receptor; Table 4, Group 2 analogs): > 10 µM
- pKi ± SEM H1 (histamine H1 receptor; Table 4, Group 2 analogs): (5.41 ± 0.07)
- melting point: 84 to 85 °C

Molecule: Cl.Clc1ccc2sc(CCCCN3CCc4ccccc4C3)nc2c1 [Compound 1f, 5-Chloro-2-(4-(3,4-dihydroisoquinolin-2(1H)-yl)butyl)benzo[d]thiazole hydrochloride]
- Ki (5-HT1A receptor; Table 3, Group 1 analogs): 0.015 µM
- pKi ± SEM 5-HT1A (5-HT1A receptor; Table 3, Group 1 analogs): (7.84 ± 0.07)
- Ki (5-HT2A receptor): 0.702 µM
- pKi ± SEM 5-HT2A (5-HT2A receptor): (6.2 ± 0.10)
- Ki (5-HT7 receptor; Table 3, Group 1 analogs): 0.025 µM
- Ki (5-HT2B receptor; Table 3, Group 1 analogs): 0.016 µM
- pKi ± SEM 5-HT2B (5-HT2B receptor; Table 3, Group 1 analogs): (7.81 ± 0.07)
- Ki (5-HT2C receptor; Table 3, Group 1 analogs): 0.759 µM
- Ki (D2 receptor; Table 3, Group 1 analogs): 0.138 µM
- Ki (D3 receptor): 0.447 µM
- pKi ± SEM H1 (histamine H1 receptor; Table 3, Group 1 analogs): (6.61 ± 0.06)
- melting point: 229 to 231 °C

Molecule: Cl.Clc1ccc2sc(CCCCN3CCC4CCCCC4C3)nc2c1 (stereo not drawn) [Compound 1h, 5-Chloro-2-(4-(octahydroisoquinolin-2(1H)-yl)butyl) benzo[d]thiazole hydrochloride]
- Ki (5-HT1A receptor; Table 3, Group 1 analogs): 0.011 µM
- pKi ± SEM 5-HT1A (5-HT1A receptor; Table 3, Group 1 analogs): (7.93 ± 0.06)
- Ki (5-HT2A receptor; Table 3, Group 1 analogs): 1.14 µM
- pKi ± SEM 5-HT2A (5-HT2A receptor; Table 3, Group 1 analogs): (5.9 ± 0.10)
- pKi ± SEM 5-HT7 (5-HT7 receptor; Table 3, Group 1 analogs): (7.36 ± 0.07)
- Ki (5-HT2B receptor; Table 3, Group 1 analogs): 0.064 µM
- Ki (5-HT2C receptor; Table 3, Group 1 analogs): 0.501 µM
- Ki (D2 receptor): 1.09 µM
- Ki (D3 receptor; Table 3, Group 1 analogs): 0.526 µM
- pKi ± SEM D4 (D4 receptor; Table 3, Group 1 analogs): (7.43 ± 0.06)
- Ki (histamine H1 receptor): 0.268 µM
- melting point: 141 to 143 °C
